According to PubChem BioAssay AID1963974 (Molecular Pharmacology Branch, DTP, NCI, 2024):

Tested on: 648629-189-R-J1-PDC spheroids with HUVEC/MSC, viability
Assay: Anticancer human tumor 648629-189-R-J1-PDC patient-derived bladder carcinoma cell line growth inhibition [PI3K]
Settings: for IC50: curve of first compound; for viability, T/C: stronger effect = lower value
In short: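 Stroma-containing spheroids: tumor line, pooled-donor HUVEC, hMSC. Treatments: targeted agents with PI3K inhibitors. Dosing: clinically relevant, half-log spacing, 10 microM ceiling without known Cmax. Read-out: cell viability.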

[1] = second compound 0.0316 µM, first compound 0.0316 µM
[2] = second compound 0.0316 µM, first compound 0.1 µM
[3] = second compound 0.0316 µM, first compound 0.316 µM
[4] = second compound 0.0316 µM, first compound 1 µM
[5] = second compound 0.0316 µM, first compound 3.16 µM
[6] = second compound 0.0316 µM, first compound 10 µM
[7] = second compound 0.1 µM, first compound 0.0316 µM
[8] = second compound 0.1 µM, first compound 0.1 µM
[9] = second compound 0.1 µM, first compound 0.316 µM
[10] = second compound 0.1 µM, first compound 1 µM
[11] = second compound 0.1 µM, first compound 3.16 µM
[12] = second compound 0.1 µM, first compound 10 µM
[13] = second compound 0.316 µM, first compound 0.0316 µM
[14] = second compound 0.316 µM, first compound 0.1 µM
[15] = second compound 0.316 µM, first compound 0.316 µM
[16] = second compound 0.316 µM, first compound 1 µM
[17] = second compound 0.316 µM, first compound 3.16 µM
[18] = second compound 0.316 µM, first compound 10 µM
[19] = second compound 1 µM, first compound 0.0316 µM
[20] = second compound 1 µM, first compound 0.1 µM
[21] = second compound 1 µM, first compound 0.316 µM
[22] = second compound 1 µM, first compound 1 µM
[23] = second compound 1 µM, first compound 3.16 µM
[24] = second compound 1 µM, first compound 10 µM
[25] = second compound 3.16 µM, first compound 0.0316 µM
[26] = second compound 3.16 µM, first compound 0.1 µM
[27] = second compound 3.16 µM, first compound 0.316 µM
[28] = second compound 3.16 µM, first compound 1 µM
[29] = second compound 3.16 µM, first compound 3.16 µM
[30] = second compound 3.16 µM, first compound 10 µM
[31] = second compound 10 µM, first compound 0.0316 µM
[32] = second compound 10 µM, first compound 0.1 µM
[33] = second compound 10 µM, first compound 0.316 µM
[34] = second compound 10 µM, first compound 1 µM
[35] = second compound 10 µM, first compound 3.16 µM
[36] = second compound 10 µM, first compound 10 µM
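Further: spheroids exposed to agents for seven days before reading.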
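Wherever viability, T/C is given: percent of vehicle control luminescence where 100% = DMSO treated spheroids.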

Q: With `CC1(C)CCC(CN2CCN(c3ccc(C(=O)NS(=O)(=O)c4ccc(NCC5CCOCC5)c([N+](=O)[O-])c4)c(Oc4cnc5[nH]ccc5c4)c3)CC2)=C(c2ccc(Cl)cc2)C1` + Cc1nc(NC(=O)N2CCCC2C(N)=O)sc1-c1ccnc(C(C)(C)C(F)(F)F)c1 as the compound, how does the IC50 (second compound 0.0316 µM) read?
A: 4.85 µM

Q: And the IC50 (second compound 0.1 µM)?
A: 4.71 µM

Q: What about the IC50 (second compound 0.316 µM) of the same compound?
A: 4.72 µM

Q: And the IC50 (second compound 1 µM)?
A: 4.73 µM

Q: What about the IC50 (second compound 3.16 µM) of the same compound?
A: 3.71 µM

Q: What about the IC50 (second compound 10 µM) of the same compound?
A: < 0.0316 µM

Q: What about the viability, T/C [1] of the same compound?
A: 122%

Q: And the viability, T/C [2]?
A: 100%

Q: And the viability, T/C [3]?
A: 102%

Q: What about the viability, T/C [4] of the same compound?
A: 91.6%

Q: What about the viability, T/C [5] of the same compound?
A: 78.4%

Q: And the viability, T/C [6]?
A: 9.8%

Q: What about the viability, T/C [7] of the same compound?
A: 106%

Q: What about the viability, T/C [8] of the same compound?
A: 102%

Q: What about the viability, T/C [9] of the same compound?
A: 106%

Q: What about the viability, T/C [10] of the same compound?
A: 94.9%

Q: And the viability, T/C [11]?
A: 71.6%

Q: And the viability, T/C [12]?
A: 9.33%

Q: What about the viability, T/C [13] of the same compound?
A: 98.3%

Q: What about the viability, T/C [14] of the same compound?
A: 85.1%

Q: And the viability, T/C [15]?
A: 92.2%

Q: What about the viability, T/C [16] of the same compound?
A: 84.4%

Q: And the viability, T/C [17]?
A: 72.5%

Q: What about the viability, T/C [18] of the same compound?
A: 9.78%

Q: What about the viability, T/C [19] of the same compound?
A: 83.8%

Q: What about the viability, T/C [20] of the same compound?
A: 78.1%

Q: And the viability, T/C [21]?
A: 74.3%

Q: What about the viability, T/C [22] of the same compound?
A: 78.5%

Q: And the viability, T/C [23]?
A: 73.2%

Q: And the viability, T/C [24]?
A: 6.85%

Q: What about the viability, T/C [25] of the same compound?
A: 61.2%

Q: What about the viability, T/C [26] of the same compound?
A: 57%

Q: And the viability, T/C [27]?
A: 58.3%

Q: And the viability, T/C [28]?
A: 57.9%

Q: And the viability, T/C [29]?
A: 56%

Q: And the viability, T/C [30]?
A: 12.8%

Q: And the viability, T/C [31]?
A: 43.5%

Q: And the viability, T/C [32]?
A: 37.1%

Q: What about the viability, T/C [33] of the same compound?
A: 40.1%

Q: What about the viability, T/C [34] of the same compound?
A: 38.3%

Q: What about the viability, T/C [35] of the same compound?
A: 43.1%

Q: And the viability, T/C [36]?
A: 7.34%

Q: What does the source list for `CCCS(=O)(=O)Nc1ccc(F)c(C(=O)c2c[nH]c3ncc(-c4ccc(Cl)cc4)cc23)c1F` + Cc1nc(NC(=O)N2CCCC2C(N)=O)sc1-c1ccnc(C(C)(C)C(F)(F)F)c1?
A: IC50 (second compound 0.0316 µM): 5.13 µM; IC50 (second compound 0.1 µM): 5.06 µM; IC50 (second compound 0.316 µM): 4.81 µM; IC50 (second compound 1 µM): 4.31 µM; IC50 (second compound 3.16 µM): 3.69 µM; IC50 (second compound 10 µM): < 0.0316 µM; viability, T/C [1]: 122%; viability, T/C [2]: 104%; viability, T/C [3]: 123%; viability, T/C [4]: 110%; viability, T/C [5]: 86.2%; viability, T/C [6]: 0.2%; viability, T/C [7]: 115%; viability, T/C [8]: 102%; viability, T/C [9]: 114%; viability, T/C [10]: 107%; viability, T/C [11]: 84%; viability, T/C [12]: 0.34%; viability, T/C [13]: 93.3%; viability, T/C [14]: 97.4%; viability, T/C [15]: 96.9%; viability, T/C [16]: 90.7%; viability, T/C [17]: 79%; viability, T/C [18]: 0.27%; viability, T/C [19]: 81.1%; viability, T/C [20]: 96.7%; viability, T/C [21]: 103%; viability, T/C [22]: 84.7%; viability, T/C [23]: 68.7%; viability, T/C [24]: 0.67%; viability, T/C [25]: 63.1%; viability, T/C [26]: 65.7%; viability, T/C [27]: 62%; viability, T/C [28]: 53.1%; viability, T/C [29]: 58%; viability, T/C [30]: 0.64%; viability, T/C [31]: 43.7%; viability, T/C [32]: 44.1%; viability, T/C [33]: 33.7%; viability, T/C [34]: 37%; viability, T/C [35]: 27.3%; viability, T/C [36]: 0.85%

Q: How did the IC50 (second compound 0.0316 µM) turn out when `CNC(=O)c1ccc(N2C(=S)N(c3ccc(C#N)c(C(F)(F)F)c3)C(=O)C2(C)C)cc1F` + Cc1nc(NC(=O)N2CCCC2C(N)=O)sc1-c1ccnc(C(C)(C)C(F)(F)F)c1 was run?
A: > 10 µM

Q: And the IC50 (second compound 0.1 µM)?
A: > 10 µM

Q: What about the IC50 (second compound 0.316 µM) of the same compound?
A: > 10 µM

Q: What about the IC50 (second compound 1 µM) of the same compound?
A: > 10 µM

Q: And the IC50 (second compound 3.16 µM)?
A: > 10 µM

Q: What about the IC50 (second compound 10 µM) of the same compound?
A: < 0.0316 µM

Q: What about the viability, T/C [1] of the same compound?
A: 106%

Q: What about the viability, T/C [2] of the same compound?
A: 105%

Q: What about the viability, T/C [3] of the same compound?
A: 118%

Q: What about the viability, T/C [4] of the same compound?
A: 111%

Q: And the viability, T/C [5]?
A: 104%

Q: What about the viability, T/C [6] of the same compound?
A: 89.7%

Q: What about the viability, T/C [7] of the same compound?
A: 90.1%

Q: What about the viability, T/C [8] of the same compound?
A: 92.7%

Q: What about the viability, T/C [9] of the same compound?
A: 106%

Q: And the viability, T/C [10]?
A: 102%

Q: And the viability, T/C [11]?
A: 102%

Q: What about the viability, T/C [12] of the same compound?
A: 79%

Q: And the viability, T/C [13]?
A: 91.4%

Q: What about the viability, T/C [14] of the same compound?
A: 99.7%

Q: What about the viability, T/C [15] of the same compound?
A: 98.1%

Q: What about the viability, T/C [16] of the same compound?
A: 98.4%

Q: What about the viability, T/C [17] of the same compound?
A: 89.7%

Q: And the viability, T/C [18]?
A: 72.8%

Q: And the viability, T/C [19]?
A: 73.2%

Q: What about the viability, T/C [20] of the same compound?
A: 82.3%

Q: What about the viability, T/C [21] of the same compound?
A: 76.7%

Q: And the viability, T/C [22]?
A: 81.1%

Q: And the viability, T/C [23]?
A: 78.6%

Q: What about the viability, T/C [24] of the same compound?
A: 75.2%

Q: And the viability, T/C [25]?
A: 64%

Q: And the viability, T/C [26]?
A: 67.1%

Q: And the viability, T/C [27]?
A: 55.1%

Q: What about the viability, T/C [28] of the same compound?
A: 60.7%

Q: And the viability, T/C [29]?
A: 64.7%

Q: And the viability, T/C [30]?
A: 63.2%

Q: And the viability, T/C [31]?
A: 40.3%

Q: And the viability, T/C [32]?
A: 44.1%

Q: What about the viability, T/C [33] of the same compound?
A: 40.2%

Q: What about the viability, T/C [34] of the same compound?
A: 42%

Q: And the viability, T/C [35]?
A: 45.7%

Q: What about the viability, T/C [36] of the same compound?
A: 48.6%
